Here are results for 30 molecules from paper PMC7587356, “High-Throughput Screening for Inhibitors of the SARS-CoV-2 Protease Using a FRET-Biosensor” (Molecules, 2020).

The experiment has as its target SARS-CoV-2 3CLpro (Severe acute respiratory syndrome coronavirus 2, UniProt P0DTD1). Nature of the experiment: biochemical. The class given is biochemical. The arrangement: Replicate_1 / Replicate_2 / mean / mean (LOPAC_screen_w_protease): unit not given here. To be noted: for inhibition at 5 µM: 4 h.
Where [1] appears, read: LOPAC1280 primary screen with protease, 5 µM compound, mean of two replicates.
Where [2] appears, read: LOPAC1280 primary screen with protease, 5 µM compound, replicate 1.
Setting [3] is: LOPAC1280 primary screen with protease, 5 µM compound, replicate 2.
Where [4] appears, read: sheet LOPAC_screen_w_protease, primary screen with protease, 5 µM, mean of two replicates, read-out: mean.
Where [5] appears, read: sheet LOPAC_screen_w_protease, primary screen with protease, 5 µM, replicate 1, read-out: Replicate_1.
[6] abbreviates: sheet LOPAC_screen_w_protease, primary screen with protease, 5 µM, replicate 2, read-out: Replicate_2.
Setting [7] is: sheet LOPAC_screen_w_protease, LOPAC1280 at 5 µM, mean of two replicates, read-out: mean.
The mark [8] stands for this setting: sheet LOPAC_screen_w_protease, LOPAC1280 at 5 µM, replicate 1, read-out: Replicate_1.
[9] abbreviates: sheet LOPAC_screen_w_protease, LOPAC1280 at 5 µM, replicate 2, read-out: Replicate_2.
[10] abbreviates: sheet LOPAC_screen_w_protease, primary screen with protease, compound at 5 µM, mean of two replicates, read-out: mean.
The mark [11] stands for this setting: sheet LOPAC_screen_w_protease, primary screen with protease, compound at 5 µM, replicate 1, read-out: Replicate_1.
Where [12] appears, read: sheet LOPAC_screen_w_protease, primary screen with protease, compound at 5 µM, replicate 2, read-out: Replicate_2.
Setting [13] is: LOPAC1280 primary screen with protease, 5 µM compound, replicate 1, read-out: Replicate_1 (LOPAC_screen_w_protease).
Where [14] appears, read: LOPAC1280 primary screen with protease, 5 µM compound, replicate 2, read-out: Replicate_2 (LOPAC_screen_w_protease).
Setting [15] is: sheet LOPAC_screen_w_protease, LOPAC1280 primary screen at 5 µM, with protease, mean of the two replicates, read-out: mean.
The mark [16] stands for this setting: sheet LOPAC_screen_w_protease, LOPAC1280 primary screen at 5 µM, with protease, replicate 1, read-out: Replicate_1.
Where [17] appears, read: sheet LOPAC_screen_w_protease, LOPAC1280 primary screen at 5 µM, with protease, replicate 2, read-out: Replicate_2.
[18] abbreviates: read-out: Replicate_1 (LOPAC_screen_w_protease).
[19] abbreviates: read-out: Replicate_2 (LOPAC_screen_w_protease).
The mark [20] stands for this setting: sheet LOPAC_screen_w_protease, primary screen with protease, mean of two replicates.
Where [21] appears, read: sheet LOPAC_screen_w_protease, primary screen with protease, replicate 1.
[22] abbreviates: sheet LOPAC_screen_w_protease, primary screen with protease, replicate 2.

Where a name gives a salt, the structure may show the parent alone. Read-outs that look alike come from different tables or passages of the source.

As for `NC(=S)c1ccc[n+]([C@@H]2O[C@@H](COP(=O)([O-])OP(=O)(O)OC[C@H]3O[C@@H](n4cnc5c(N)ncnc54)C(OP(=O)([O-])O)[C@H]3O)C(O)C2O)c1.[Na+]` (some centres unmarked) [Thio-NADP sodium], the “mean (LOPAC_screen_w_protease)” value under setting [1] came to 1.323. Besides, the “Replicate_1 (LOPAC_screen_w_protease)” value under setting [2] is listed as 2.439. The “Replicate_2 (LOPAC_screen_w_protease)” value under setting [3] is on record as 0.2062.
Regarding `C=C/C(C)=C/[C@@]1(C)SC(=O)C(C)=C1O` [Thiolactomycin], the inhibition at 5 µM came out at 4.16% (sheet LOPAC_screen_w_protease, LOPAC1280 primary screen with protease, 5 µM compound, mean of the two replicates, read-out: mean); 2.88% (sheet LOPAC_screen_w_protease, LOPAC1280 primary screen with protease, 5 µM compound, replicate 1, read-out: Replicate_1); 5.43% (sheet LOPAC_screen_w_protease, LOPAC1280 primary screen with protease, 5 µM compound, replicate 2, read-out: Replicate_2).
With `S=C(NC1CCCCC1)N1CCC(c2cnc[nH]2)CC1` [Thioperamide maleate], the inhibition at 5 µM was -0.179% under setting [4], -0.586% under setting [5] and 0.227% under setting [6].
With `CSc1ccc2c(c1)N(CCC1CCCCN1C)c1ccccc1S2` (centres unmarked) [Thioridazine hydrochloride], the inhibition at 5 µM (read-out: Replicate_1) was 0.0861%, the inhibition at 5 µM (read-out: Replicate_2) was 0.816% and the inhibition at 5 µM (read-out: mean) was found to be 0.451%.
As for `CN1CCN(CC/C=C2/c3ccccc3Sc3ccc(S(=O)(=O)N(C)C)cc32)CC1.Cl` [Thiothixene hydrochloride], the “mean (LOPAC_screen_w_protease)” value under setting [1] was determined as 1.56. Under setting [2], the “Replicate_1 (LOPAC_screen_w_protease)” value is reported as 2.053. Further, under setting [3], the “Replicate_2 (LOPAC_screen_w_protease)” value is recorded as 1.066.
For the molecule `CCN(CC)CCNC(=O)c1cc(S(C)(=O)=O)ccc1OC` [Tiapride hydrochloride], the inhibition at 5 µM by setting is: under setting [7], 1.21%; under setting [8], 1.45%; under setting [9], 0.964%.
With `Cc1ccc(S(=O)(=O)NC(=O)NN2CCCCCC2)cc1` [Tolazamide], the inhibition at 5 µM is -0.908% under setting [4], -0.0393% under setting [5] and -1.78% under setting [6].
For `CCCCNc1c(C(=O)OCC)c(C)nc2c1cnn2CC` [Tracazolate], in that order: -0.116%, 0.109% and -0.341%.
For the molecule `COc1ccc(/C=C/C(=O)Nc2ccccc2C(=O)O)cc1OC` [Tranilast], the inhibition at 5 µM is, setting by setting: (read-out: Replicate_1) 0.566%; (read-out: Replicate_2) -2.13%; (read-out: mean) -0.784%.
`N[C@@H]1C[C@H]1c1ccccc1` [Tranylcypromine hydrochloride] came in with a Replicate_1 of 0.4955, a Replicate_2 of 0.8775 and a mean of 0.6865.
Regarding `O=c1n(CCCN2CCN(c3cccc(Cl)c3)CC2)nc2ccccn12` [Trazodone hydrochloride], the inhibition at 5 µM by setting is: under setting [10], 2.86%; under setting [11], 3.03%; under setting [12], 2.69%.
Turning to `COc1cc2c(cc1OC)-c1c/c(=N\c3c(C)cc(C)cc3C)n(C)c(=O)n1CC2` [Trequinsin hydrochloride], the inhibition at 5 µM worked out at 1.97% under setting [13] and 2% under setting [14]. Further, under “LOPAC1280 primary screen with protease, 5 µM compound, mean of the two replicates”, the “mean (LOPAC_screen_w_protease)” value worked out at 1.986.
As for `Nc1nc(N)c2nc(-c3ccccc3)c(N)nc2n1` [Triamterene], the inhibition at 5 µM runs as follows: under setting [4], -0.222%; under setting [5], 2.19%; under setting [6], -2.63%.
For `CN1CCN(CCCN2c3ccccc3Sc3ccc(C(F)(F)F)cc32)CC1` [Trifluoperazine dihydrochloride], in that order: 0.187%, 0.0814% and 0.293%.
In the case of `O=C(CCCN1CCC(O)(c2cccc(C(F)(F)F)c2)CC1)c1ccc(F)cc1` [Trifluperidol hydrochloride], the inhibition at 5 µM was -0.00744% under setting [13] and 3.06% under setting [14]. Further, the “mean (LOPAC_screen_w_protease)” value under setting [1] turned out to be 1.525.
Regarding `CN(C)CCCN1c2ccccc2Sc2ccc(C(F)(F)F)cc21` [Triflupromazine hydrochloride], the inhibition at 5 µM by setting is: under setting [15], 0.692%; under setting [16], 1.65%; under setting [17], -0.271%.
Regarding `OC(CCN1CCCCC1)(c1ccccc1)C1CCCCC1` (centres unmarked) [Trihexyphenidyl hydrochloride], the inhibition at 5 µM reads like this: under setting [18], 1.61%; under setting [19], 1.86%.
Turning to `COc1cc(Cc2cnc(N)nc2N)cc(OC)c1OC` [Trimethoprim], the inhibition at 5 µM reads like this: (read-out: Replicate_1) -0.343%; (read-out: Replicate_2) -3.24%; (read-out: mean) -1.79%.
For the molecule `CC(CN(C)C)CN1c2ccccc2CCc2ccccc21` (centres unmarked) [Trimipramine maleate], the inhibition at 5 µM by setting is: (sheet LOPAC_screen_w_protease, primary screen with protease, mean of two replicates, read-out: mean) 2.36%; (sheet LOPAC_screen_w_protease, primary screen with protease, replicate 1, read-out: Replicate_1) 3.17%; (sheet LOPAC_screen_w_protease, primary screen with protease, replicate 2, read-out: Replicate_2) 1.55%.
Where the note is “sheet LOPAC_screen_w_protease, primary screen with protease, 5 µM, mean of two replicates”, `Cc1ccc(/C(=C\CN2CCCC2)c2ccccn2)cc1.Cl` [Triprolidine hydrochloride] yielded a mean of 0.01953. The same molecule came in with a Replicate_1 (sheet LOPAC_screen_w_protease, primary screen with protease, 5 µM, replicate 1) of 0.1702. Where the note is “sheet LOPAC_screen_w_protease, primary screen with protease, 5 µM, replicate 2”, this molecule had a Replicate_2 of -0.1311.
Turning to `NCCc1c[nH]c2ccccc12` [Tryptamine hydrochloride], the inhibition at 5 µM runs as follows: under setting [15], 0.461%; under setting [16], 0.957%; under setting [17], -0.0349%.
Consider `CC(C)(C)NCC(O)c1ccccc1Cl` (centres unmarked) [Tulobuterol hydrochloride], for which the inhibition at 5 µM was 0.895% under setting [7], 2.46% under setting [8] and -0.673% under setting [9].
In the case of `N#CC(C#N)=Cc1ccc(O)c(O)c1` [Tyrphostin 23], the inhibition at 5 µM was determined as 3.07% under setting [10], 2.09% under setting [11] and 4.04% under setting [12].
Consider `N#CC(C#N)=Cc1cc(O)c(O)c(O)c1` [Tyrphostin 25], for which the inhibition at 5 µM was found to be 8.52% (sheet LOPAC_screen_w_protease, primary screen at 5 µM, mean of two replicates, read-out: mean (LOPAC screen with protease)); 10.5% (sheet LOPAC_screen_w_protease, primary screen at 5 µM, replicate 1, read-out: Replicate_1 (LOPAC screen with protease)); 6.57% (sheet LOPAC_screen_w_protease, primary screen at 5 µM, replicate 2, read-out: Replicate_2 (LOPAC screen with protease)).
As for `CC(C)(C)c1cc(C=C(C#N)C#N)cc(C(C)(C)C)c1O` [Tyrphostin A9], the “mean (LOPAC_screen_w_protease)” value is 2.02. Also, the inhibition at 5 µM under setting [18] was determined as 2.73%. In addition, under setting [19], the inhibition at 5 µM was 1.31%.
Under “sheet LOPAC_screen_w_protease, primary screen of LOPAC1280 at 5 µM with protease, mean of the two replicates”, `COc1cc(C=C(C#N)C#N)cc(O)c1O` [Tyrphostin AG 34] yielded a mean of 3.625. Besides, the Replicate_1 (sheet LOPAC_screen_w_protease, primary screen of LOPAC1280 at 5 µM with protease, replicate 1) is 3.8503. The molecule further displayed a Replicate_2 (sheet LOPAC_screen_w_protease, primary screen of LOPAC1280 at 5 µM with protease, replicate 2) of 3.4006.
Under setting [20], `N#CC(C#N)=C(N)/C(C#N)=C/c1ccc(O)cc1` [Tyrphostin AG 112] gave a mean of 2.497. For the same molecule, the Replicate_1 under setting [21] was determined as 2.949. For the same molecule, the Replicate_2 under setting [22] is on record as 2.046.
For `N#CC(C#N)=Cc1ccc([N+](=O)[O-])c(O)c1` [Tyrphostin AG 126], in that order: 2.288, 2.273 and 2.303.
As for `N#C/C(=C\c1ccc(O)c(O)c1)C(=O)NCc1ccccc1` [Tyrphostin AG 490], the inhibition at 5 µM worked out at 2.61% under setting [10], 3.18% under setting [11] and 2.05% under setting [12].
Take `N#C/C(=C\c1ccc(O)c(O)c1)C(=O)Nc1ccccc1` [Tyrphostin AG 494]: the inhibition at 5 µM runs as follows: (sheet LOPAC_screen_w_protease, primary screen of LOPAC1280 at 5 µM with protease, mean of the two replicates, read-out: mean) 4.07%; (sheet LOPAC_screen_w_protease, primary screen of LOPAC1280 at 5 µM with protease, replicate 1, read-out: Replicate_1) 4.44%; (sheet LOPAC_screen_w_protease, primary screen of LOPAC1280 at 5 µM with protease, replicate 2, read-out: Replicate_2) 3.69%.
